# Laboratory results taken from US4146622A, “Aziridinyl quinone anti-transplanted tumor agents” (priority 1977, dated 1979).
# Several values for one entry are separate records, joined by “and”; a condition that tells them apart may be missing. Equal values may be shown once.
# Legend:
# lymphoid leukemia L1210 [1] = experiment: Intraperitoneal (IP) lymphoid leukemia L1210 transplanted mouse tumor test; assay type: in vivo, murine; details: for antitumor activity: L1210 system, Q4D and QD1-9 schedules; for OD (optimum dose) / ILS (percentage increase in life span): Table VIII
# Text: ^(a) Day 1-9 treatment schedule (9 injections)
# ^(b) Day 1,5,9 treatment schedule (3 injections)
# ^(c) Day 1 only treatment schedule (1 injection)
# ^(f) Percentage increase in life span of treated animals [(treated
# survival .div. control survival) × 100%] - 100%
# B16 melanocarcinoma = experiment: Intraperitoneal B16 melanocarcinoma transplanted mouse tumor test; assay type: in vivo, murine
# Text: ^b Ip tumor implantation, ip QD1-9 treatment schedule.
# The L1210, P388 and B16 test systems described in Table II utilize intraperitoneal (IP) tumor implantation and IP drug treatment while the Lewis lung system employs subcutaneous tumor implantation and IP treatment.
# Aqueous saline solution (0.9%) was used as the drug vehicle. Normally, five doses were employed per experiment with the top dose chosen to produce toxicity. The lower doses were 50% of each preceeding dose.
# Consistent with NCI antitumor test protocols, intraperitoneal (IP) administration of the drug was employed with all five tumor systems investigated. Tumor implantation was IP in the systems designated IP leukemia L1210 and P388 as well as B16 melanoma.
# lymphoid leukemia L1210 [2] = experiment: Intracerebral (IC) lymphoid leukemia L1210 test; assay type: in vivo, murine; details: Table X
# ependymoblastoma = experiment: Intracerebral (IC) ependymoblastoma (EM) brain tumor test; assay type: in vivo, murine
# Text: ^c Ic tumor implantation, ip QD1-5 treatment schedule.
# ^g Number of animals alive per six test animals on day of termination
# of experiment (day 99 for expt 133 and day 60 for expt 136 and 144).
# A third IC transplanted mouse tumor model, the ependymoblastoma system, was also studied. This system requires intracerebral implantation of a solid tumor fragment while the IC L1210 and IC P388 systems utilize IC inoculated ascites tumor fluid. All three use IP drug treatment however. […] Cures (survivors from the group of six mice on the last day of the experiment) are indicated. Experiments 136 and 144 were terminated on day 60. Since the number of cures was about the same, the differences in T/C values in these two experiments reflect differences in the life span of the two different sets of control animals. Experiment 133 was terminated on day 99 with a resulting higher activity value.
# The hydrophilic dihydroxypropylamino compound (No. 39), which was curative in the IP L1210 and P388 leukemia systems, was active but gave a large spread in ILS values (53-186%). […] Again, its hydrophilic character may present transport problems in this IC tumor system.
# [3] = Room temperature water solubility; assay type: physicochemical; details: water; Table VII; room temperature, approximate; read-out: Approx. H2O Sol.
# Method: In the following examples, all melting points are uncorrected and were recorded on a Thomas-Hoover capillary melting point apparatus. Elemental analyses were performed by NIAMDD, NIH, Bethesda, Maryland. Fluoranil, ethyleneimine and 2l -methylethyleneimine were obtained commerically. […] New compounds were identified by nmr and ir spectroscopy. In the tetraamino derivatives, the methylene protons of the aziridine rings usually occurred as a singlet at δ2.0-2.2 in CDCl3 or DMSO-d6. This absorption appeared at δ2.40 (CDCl3) for compound 11. Carbonyl absorption frequencies (nujol mull) occurred in the range 1620-1640 cm^-1 for the tetraamino compounds. Satisfactory elemental analyses (+0.4% of calculated values) are indicated by elemental symbols in Table VII. Room temperature water solubilities were determined by the incremental addition (pipet) of water to a weighed amount of compound with shaking. The solubility values in Table VII must be considered as approximate.
smiles,measurement,setting,value
CCSC1=C(N2CC2)C(=O)C(SCC)=C(N2CC2)C1=O [Compound 5],activity (%ILS),"lymphoid leukemia L1210 [1]; IP L1210, Q4D schedule",30%
same,antitumor activity,lymphoid leukemia L1210 [1],the activity was not reproducible
CCCSC1=C(N2CC2)C(=O)C(SCCC)=C(N2CC2)C1=O [Compound 6],antitumor activity,lymphoid leukemia L1210 [1],inactive
CCOC(=O)NC1=C(N2CC2C)C(=O)C(NC(=O)OCC)=C(N2CC2C)C1=O (stereo not shown) [Compound 10],antitumor activity,lymphoid leukemia L1210 [1],abolished activity
CCOC(=O)NC1=C(N2CC2(C)C)C(=O)C(NC(=O)OCC)=C(N2CC2(C)C)C1=O [Compound 11],antitumor activity,lymphoid leukemia L1210 [1],abolished activity
CCOC(=O)NC1=C(NCCCl)C(=O)C(NC(=O)OCC)=C(NCCCl)C1=O [Compound 12],antitumor activity,lymphoid leukemia L1210 [1],activity was abolished
CC(=O)NC1=C(N2CC2(C)C)C(=O)C(NC(C)=O)=C(N2CC2(C)C)C1=O [Compound 21],antitumor activity,lymphoid leukemia L1210 [1],abolished activity
CNC1=C(N2CC2C)C(=O)C(NC)=C(N2CC2C)C1=O (stereo not shown) [Compound 26],OD (optimum dose),"lymphoid leukemia L1210 [1]; IP L1210, Day 1 only (1 injection)",5.0 mg/kg/injection and 10.0 mg/kg/injection
same,ILS (percentage increase in life span),"lymphoid leukemia L1210 [1]; IP L1210, Day 1 only, at OD",42% and 39%
same,OD (optimum dose),"lymphoid leukemia L1210 [1]; IP L1210, Q4D(1,5,9) (3 injections)",12.5 mg/kg/injection
same,ILS (percentage increase in life span),"lymphoid leukemia L1210 [1]; IP L1210, Q4D(1,5,9), at OD",93% and 52%
same,OD (optimum dose),"lymphoid leukemia L1210 [1]; IP L1210, QD1-9 (9 injections)",5.0 mg/kg/injection
same,ILS (percentage increase in life span),"lymphoid leukemia L1210 [1]; IP L1210, QD1-9, at OD",69% and 37%
same,antitumor activity,B16 melanocarcinoma; B16 melanoma,active
same,OD (optimum dose),"B16 melanocarcinoma; Table IX, B16, QD1-9",5.0 mg/kg/injection
same,ILS (percentage increase in life span),"B16 melanocarcinoma; Table IX, B16, QD1-9, at OD",70% and 48%
same,ILS (%) B16,"B16 melanocarcinoma; Table XI, outstanding activity",70%
same,OD (optimum dose),"lymphoid leukemia L1210 [2]; IC L1210, QD1-9",5.0 mg/kg/injection and 10.0 mg/kg/injection
same,ILS (percentage increase in life span),"lymphoid leukemia L1210 [2]; IC L1210, QD1-9, at OD",39% and 25%
same,antitumor activity,ependymoblastoma; IC ependymoblastoma (EM),highly active
same,OD (optimum dose),"ependymoblastoma; Table X, IC ependymoblastoma, QD1-5",10.0 mg/kg/injection and 5.0 mg/kg/injection
same,animals alive per 6 test animals on day of termination,"ependymoblastoma; Table X, IC ependymoblastoma, QD1-5, at OD, day 60",1
same,ILS (%) EM,"ependymoblastoma; Table XI, outstanding activity",294%
same,survivors (number in parentheses) EM,"ependymoblastoma; Table XI, per 6 test animals, day 60",1
same,solubility,[3],< 100 µg/mL
